These results are taken from patent publication US9732060B2, “Aminotriazine derivative and pharmaceutical composition comprising the same” (Shionogi & Co., Ltd., priority 2013, dated 2017).

One data set deals with human P2X3 receptor (Homo sapiens (Human), UniProt P56373). Put plainly: Evaluation of human P2X3 receptor inhibitory activity in the presence of human serum albumin (HSA). Particulars: in the presence of 1% HSA (final concentration). Format: cell-based. Here is the method:
Stably expressing cell line (C6BU-1 cell transfected with human P2X3 receptor gene (GenBank accession number Y07683; was used. The cells were seeded in a 96-well microtiter plate at a concentration of 8000 cells/well and cultured in the medium (7.0% fetal bovine serum, 7.0% horse serum, 1% antibiotic and antifungal, and 2.0% glutamine in DMEM) for one day at 37° C. under 5% carbon dioxide atmosphere. The medium was replaced with 4 μM Fluo-3-AM solution (20 mM HEPES, 137 mM NaCl, 5.37 mM KCl, 0.9 mM MgCl2, 1.26 mM CaCl2, 5.6 mM D-glucose, 2.5 mM probenecid, 0.5% BSA, and 0.04% Pluronic F-127, pH 7.5) and incubated at 37° C. under 5% dioxide carbon atmosphere for one hour. The plate was washed with washing buffer (20 mM HEPES, 137 mM NaCl, 5.27 mM KCl, 0.9 mM MgCl2, 1.26 mM CaCl2, 5.6 mM D-glucose, 2.5 mM probenecid, pH 7.5), and each well was added with 40 μL of this buffer. The plate was placed in High-Throughput Screening System FDSS 3000 (Hamamatsu Photonics K.K.). Measurement of fluorescence intensity by FDSS 3000 was started, and 40 μL of DMSO solutions containing 1% HSA (final concentrations) different concentrations of the test compound as prepared by dilution with dilution buffer (20 mM HEPES, 137 mM NaCl, 5.27 mM KCl, 0.9 mM MgCl2, 1.26 mM CaCl2, 5.6 mM D-glucose, 2.5 mM probenecid, 0.1% Pluronic F-127, pH 7.5) were dispensed to each well through the built-in automatic dispenser. Five minutes after, 50 nM ATP solution (50 μL) prepared by dilution with the dilution buffer was dispensed through the built-in automatic dispenser, and the measurement of fluorescence intensity was continued for 4 min. For each well, the specific maximum fluorescence intensity was calculated as the ratio of the maximum fluorescence intensity after addition of the ATP solution to the fluorescence intensity at the starting of the measurement. […] FDSS software (Hamamatsu Photonics K.K.) was used for calculation of the specific maximum fluorescence intensity. IC50 was calculated using Microsoft Excel (Microsoft Corporation) and XLfit (idbs Ltd.)

The next data set deals with Rat P2X3 receptor (Rattus norvegicus (Rat), UniProt P49654). Put plainly: Evaluation of rat P2X3 receptor inhibitory activity in the presence of rat serum albumin (RSA). The format is cell-based. Particulars: read-out: ratP2X3 + RSA IC50. Here is the method:
Rat P2X3 receptor gene (GenBank accession number NM_031075) was expressed in C6BU-1 cell. The C6BU-1 cells were seeded in a 96-well micro titer plate at a concentration of 2500 cells/well and cultured in the medium (7.0% fetal bovine serum, 7.0% horse serum, and 1% antibiotic and antifungal in DMEM) for one day at 37° C. under 5% carbon dioxide atmosphere. The plasmid was transfected into the cells using transfection reagent FuGENE6 (Promega). The transfected cells were cultured in the medium for one day at 37° C. under 5% carbon dioxide atmosphere. The medium was replaced with 4 μM Fluo-4-AM solution (pH 7.5) containing 20 mM HEPES, 137 mM NaCl, 5.27 mM KCl, 0.9 mM MgCl2, 1.26 mM CaCl2, 5.6 mM D-glucose, 2.5 mM probenecid, 10% RSA, and 0.08% Pluronic F-127, and incubated at 37° C. under 5% dioxide carbon atmosphere for one hour. The plate was washed with washing buffer (20 mM HEPES, 137 mM NaCl, 5.27 mM KCl, 0.9 mM MgCl2, 1.26 mM CaCl2, 5.6 mM D-glucose, 2.5 mM probenecid, pH 7.5), and each well was added with 40 μL of this buffer. The plate was placed in High-Throughput Screening System FDSS 3000 (Hamamatsu Photonics K.K.). Measurement of fluorescence intensity by FDSS 3000 was started, and 40 μL of DMSO solutions containing 1% RSA (final concentrations) and different concentrations of the test compound as prepared by dilution with dilution buffer (20 mM HEPES, 137 mM NaCl, 5.27 mM KCl, 0.9 mM MgCl2, 1.26 mM CaCl2, 5.6 mM D-glucose, 2.5 mM probenecid, 0.1% Pluronic F-127, pH 7.5) were dispensed to each well through the built-in automatic dispenser. Five minutes after, 50 nM ATP solution (50 μL) prepared by dilution with the dilution buffer was dispensed through the built-in automatic dispenser, and the measurement of fluorescence intensity was continued for 4 min. For each well, the specific maximum fluorescence intensity was calculated as the ratio of the maximum fluorescence intensity after addition of the ATP solution to the fluorescence intensity at the starting of the measurement. […] FDSS software (Hamamatsu Photonics K.K.) was used for calculation of the specific maximum fluorescence intensity. IC50 was calculated using Microsoft Excel (Microsoft Corporation) and XLfit (idbs Ltd.).

Data set [1] is described as follows: Solubility test (1% DMSO, artificial intestinal juice pH 6.8). Particulars: artificial intestinal juice pH 6.8 with 1% DMSO, 25 °C, fassgf or other biorelevant, kinetic from dmso stock, artificial intestinal juice pH 6.8, 25 degrees Celsius, read-out: Solubulity. Format: physicochemical. Here is the method: The solubility of a compound was determined under a condition in which 1% DMSO was added. 10 mmol/L compound solution was prepared using DMSO, and then 2 μL of the compound solution was added to 198 μL of artificial intestinal juice in pH 6.8 (to 250 mL of 0.2 mol/L potassium dihydrogen phosphate reagent solution was added 118 mL of 0.2 mol/L NaOH reagent solution and water to provide a final volume of 1000 mL). After standing at 25 degrees Celsius for 18 hours, the mixed solution was filtrated with suction. The filtrate was diluted twice with methanol/water (1/1), and then a concentration in the filtration was measured with HPLC or LC/MS/MS by the absolute calibration method.

Data set [2] can be described thus: Metabolism stability test, pooled human hepatic microsomes. Format: in vitro ADME. Particulars: remaining rate, human liver microsomes, 30 minutes, compound concentration 0.5 μmol/L. Here is the method: Using commercially available pooled human hepatic microsomes, a test compound is reacted for a constant time, a remaining rate is calculated by comparing a reacted sample and an unreacted sample, thereby, a degree of metabolism in liver is assessed.
A reaction was performed (oxidative reaction) at 37° C. for 0 minute or 30 minutes in the presence of 1 mmol/L NADPH in 0.2 mL of a buffer (50 mmol/L tris-HCl pH 7.4, 150 mmol/L potassium chloride, 10 mmol/L magnesium chloride) containing 0.5 mg protein/mL of human liver microsomes. After the reaction, 50 μL of the reaction solution was added to 100 μL of a methanol/acetonitrile=1/1 (v/v) mixed and centrifuged at 3000 rpm for 15 minutes. The test compound in the supernatant was quantified by LC/MS/MS, and a remaining amount of the test compound after the reaction was calculated, letting a compound amount at 0 minute reaction time to be 100%.
The remaining rate at the compound concentration 0.5 μmol/L are shown below.
For orientation: Liver microsomes are a subcellular fraction often used to study metabolism.

Data set [3] in a line: Protein binding test (equilibrium dialysis, unbound fraction in serum). The format is in vitro ADME. Particulars: 37° C. Here is the method: The unbound fraction of the present compound in serum was measured using serum of various species.
The reactive conditions are as follows: Evaluation method, Equilibrium dialysis; Reaction time, 24 hours; Reaction temperature, 37° C.; Concentration of the present compound, 2 μg/mL
The test solution was added to each serum and the mixture was agitated to prepare the serum samples at the concentration mentioned above. Each serum sample was added into one side of the cell and phosphate buffered saline (PBS) was added into the other side to perform equilibrium dialysis at 37° C. for 24 hours. Then, the concentration of the compounds in the samples that were obtained from both sides was measured by LC/MS/MS.
The ratio of PBS concentration to serum concentration is expressed as unbound fraction (fu),
In general terms: In equilibrium dialysis free small molecules cross a membrane that holds back macromolecules.

A further data set addresses CYP1A2 (Homo sapiens (Human), UniProt P05177). Put plainly: CYP inhibition test, CYP1A2. To be noted: pooled human hepatic microsome; 7-ethoxyresorufin-O-deethylation. Format: in vitro ADME. The procedure:
(§1) Using commercially available pooled human hepatic microsome, and employing, as markers, 7-ethoxyresorufin-O-deethylation (CYP1A2), tolbutamide methyl-hydroxylation (CYP2C9), mephenytoin 4′-hydroxylation (CYP2C19), dextromethorphan O-demethylation (CYP2D6), and terfenedine hydroxylation as typical substrate metabolism reactions of human main five CYP enzyme forms (CYP1A2, 2C9, 2C19, 2D6, 3A4), an inhibitory degree of each metabolite production amount by a test compound was assessed.
(§2) The reaction conditions were as follows: substrate, 0.5 μmol/L ethoxyresorufin (CYP1A2), 100 μmol/L tolbutamide (CYP2C9), 50 μmol/L S-mephenitoin (CYP2C19), 5 μmol/L dextromethorphan (CYP2D6), 1 μmol/L terfenedine (CYP3A4); reaction time, 15 minutes; reaction temperature, 37° C. enzyme, pooled human hepatic microsome 0.2 mg protein/mL; test, drug concentration, 1.0, 5.0, 10, 20 μmol/L (four points).
(§3) Each five kinds of substrates, human hepatic microsome, or a test drug in 50 mmol/L Hepes buffer as a reaction solution was added to a […] at the composition as described above, NADPH, as a cofactor was added to initiate metabolism reactions as markers and, after the incubation at 37° C. for 15 minutes, a methanol/acetonitrile=1/1 (v/v) solution was added to stop the reaction. After the centrifugation at 3000 rpm for 15 minutes, resorufin (CYP1A2 metabolite) in the supernatant was quantified by a fluorescent multilabel counter and tributamide hydroxide (CYP2CP metabolite), mephenytoin 4′hydroxide (CYP2C19 metabolite), […] (CYP2D6 metabolite), and terfenadine alcohol (CYP3A4 metabolite) were quantified by LC/MS/MS.
(§4) Addition of only DMSO being a solvent dissolving a drug to a reaction system was adopted as a control (100%), remaining activity (%) was calculated at each concentration of a test drug added as the solution and IC50 was calculated by reverse presumption by a logistic model using a concentration and an inhibition rate.

For another data set, the target named is CYP2C9 (Homo sapiens (Human), UniProt P11712). The experiment in a line: CYP inhibition test, CYP2C9. Particulars: pooled human hepatic microsome; tolbutamide methyl-hydroxylation. Format: in vitro ADME. The procedure: as §1, §2, §3, §4
CYP2C9, sequence (P11712 whole entry): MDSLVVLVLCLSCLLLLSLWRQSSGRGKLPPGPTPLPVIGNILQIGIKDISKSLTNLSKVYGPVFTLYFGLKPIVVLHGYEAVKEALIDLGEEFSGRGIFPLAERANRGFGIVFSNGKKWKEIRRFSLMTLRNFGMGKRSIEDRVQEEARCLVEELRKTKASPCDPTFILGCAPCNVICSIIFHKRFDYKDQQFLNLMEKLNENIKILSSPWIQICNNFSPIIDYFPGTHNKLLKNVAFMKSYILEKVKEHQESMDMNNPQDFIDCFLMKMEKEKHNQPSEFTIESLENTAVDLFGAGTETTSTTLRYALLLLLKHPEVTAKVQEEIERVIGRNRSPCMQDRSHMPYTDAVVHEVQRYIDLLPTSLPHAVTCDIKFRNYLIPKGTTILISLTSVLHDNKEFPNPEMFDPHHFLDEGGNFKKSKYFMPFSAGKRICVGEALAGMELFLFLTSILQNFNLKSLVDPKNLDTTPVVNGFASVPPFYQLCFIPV
In a further data set the target is CYP2C19 (Homo sapiens (Human), UniProt P33261). Put plainly: CYP inhibition test, CYP2C19. Format: in vitro ADME. To be noted: pooled human hepatic microsome; mephenytoin 4′-hydroxylation. The procedure:
as §1, §2, §3, §4

The target of a further data set is CYP2D6 (Homo sapiens (Human), UniProt P10635). Put plainly: CYP inhibition test, CYP2D6. Format: in vitro ADME. Particulars: pooled human hepatic microsome; dextromethorphan O-demethylation. Here is the method: as §1, §2, §3, §4
CYP2D6, sequence (P10635 whole entry): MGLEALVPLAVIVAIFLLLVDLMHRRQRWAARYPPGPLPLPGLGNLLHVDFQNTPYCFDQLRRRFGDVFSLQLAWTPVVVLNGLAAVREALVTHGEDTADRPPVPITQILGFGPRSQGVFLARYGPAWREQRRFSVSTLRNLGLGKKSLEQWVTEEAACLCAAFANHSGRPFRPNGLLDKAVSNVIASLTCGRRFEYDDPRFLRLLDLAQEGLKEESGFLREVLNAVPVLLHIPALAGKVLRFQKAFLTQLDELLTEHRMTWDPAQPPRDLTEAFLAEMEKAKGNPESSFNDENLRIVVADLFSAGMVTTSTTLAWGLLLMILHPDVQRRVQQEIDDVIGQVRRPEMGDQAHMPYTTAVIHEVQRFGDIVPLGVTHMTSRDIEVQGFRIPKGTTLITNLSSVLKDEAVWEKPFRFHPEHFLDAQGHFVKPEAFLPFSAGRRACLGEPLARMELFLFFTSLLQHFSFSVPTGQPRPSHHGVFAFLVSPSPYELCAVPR
In the next data set the target is CYP3A4 (Homo sapiens (Human), UniProt P08684). The experiment in a line: CYP inhibition test, CYP3A4. Format: in vitro ADME. Particulars: pooled human hepatic microsome; terfenedine hydroxylation. The procedure:
as §1, §2, §3, §4

The nature of data set [4]: Pharmacokinetic test (BA, CLtot). Format: in vivo. To be noted: rat, plasma, SD rats. Here is the method:
• (1) Animals: SD rats were used • (2) Breeding conditions: SD rats were allowed to freely take solid food and sterilized tap water. • (3) Dose and grouping: orally or intravenously administered at a predetermined dose; grouping was as follows (Dose depends on the compound)
Oral administration: 1 mg/kg (n=2)
The total body clearance (CLtot) was calculated by dividing the dose by the AUC of the intravenous administration group.

Where two headings read alike, the source gives them in different places.

human P2X3 receptor, sequence (P56373 whole entry): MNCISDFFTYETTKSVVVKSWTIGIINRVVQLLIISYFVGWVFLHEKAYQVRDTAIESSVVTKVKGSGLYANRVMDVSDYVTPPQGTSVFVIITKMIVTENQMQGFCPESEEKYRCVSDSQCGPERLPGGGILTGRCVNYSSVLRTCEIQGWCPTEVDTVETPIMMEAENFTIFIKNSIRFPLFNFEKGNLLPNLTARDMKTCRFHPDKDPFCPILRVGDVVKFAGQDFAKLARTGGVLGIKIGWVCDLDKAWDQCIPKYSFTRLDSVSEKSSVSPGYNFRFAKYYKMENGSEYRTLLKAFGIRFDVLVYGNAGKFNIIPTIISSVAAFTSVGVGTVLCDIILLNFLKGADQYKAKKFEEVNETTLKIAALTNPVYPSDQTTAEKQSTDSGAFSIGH
Rat P2X3 receptor, sequence (P49654 whole entry): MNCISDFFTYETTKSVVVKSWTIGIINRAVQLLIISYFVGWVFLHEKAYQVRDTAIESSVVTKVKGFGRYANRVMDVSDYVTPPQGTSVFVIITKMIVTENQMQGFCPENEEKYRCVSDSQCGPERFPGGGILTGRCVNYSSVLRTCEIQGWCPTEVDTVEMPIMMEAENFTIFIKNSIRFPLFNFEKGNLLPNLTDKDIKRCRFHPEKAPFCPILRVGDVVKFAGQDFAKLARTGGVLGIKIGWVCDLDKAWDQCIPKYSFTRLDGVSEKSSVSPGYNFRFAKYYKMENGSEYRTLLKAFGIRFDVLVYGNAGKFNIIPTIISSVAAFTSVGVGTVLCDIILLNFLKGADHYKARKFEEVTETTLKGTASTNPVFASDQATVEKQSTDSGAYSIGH
CYP3A4, sequence (P08684 whole entry): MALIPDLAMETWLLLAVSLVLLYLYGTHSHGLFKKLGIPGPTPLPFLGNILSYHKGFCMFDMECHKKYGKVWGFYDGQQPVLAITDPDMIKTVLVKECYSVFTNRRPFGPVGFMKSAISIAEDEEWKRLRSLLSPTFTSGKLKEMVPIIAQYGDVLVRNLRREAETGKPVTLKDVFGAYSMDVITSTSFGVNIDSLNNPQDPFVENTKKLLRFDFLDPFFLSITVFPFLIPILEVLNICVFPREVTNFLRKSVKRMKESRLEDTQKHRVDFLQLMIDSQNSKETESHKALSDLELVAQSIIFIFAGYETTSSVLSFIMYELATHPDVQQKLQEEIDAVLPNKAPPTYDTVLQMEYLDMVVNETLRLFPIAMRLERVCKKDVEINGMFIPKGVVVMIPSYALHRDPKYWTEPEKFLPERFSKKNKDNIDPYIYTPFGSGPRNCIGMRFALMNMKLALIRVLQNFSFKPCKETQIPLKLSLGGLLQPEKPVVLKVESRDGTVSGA
CYP2C19, sequence (P33261 whole entry): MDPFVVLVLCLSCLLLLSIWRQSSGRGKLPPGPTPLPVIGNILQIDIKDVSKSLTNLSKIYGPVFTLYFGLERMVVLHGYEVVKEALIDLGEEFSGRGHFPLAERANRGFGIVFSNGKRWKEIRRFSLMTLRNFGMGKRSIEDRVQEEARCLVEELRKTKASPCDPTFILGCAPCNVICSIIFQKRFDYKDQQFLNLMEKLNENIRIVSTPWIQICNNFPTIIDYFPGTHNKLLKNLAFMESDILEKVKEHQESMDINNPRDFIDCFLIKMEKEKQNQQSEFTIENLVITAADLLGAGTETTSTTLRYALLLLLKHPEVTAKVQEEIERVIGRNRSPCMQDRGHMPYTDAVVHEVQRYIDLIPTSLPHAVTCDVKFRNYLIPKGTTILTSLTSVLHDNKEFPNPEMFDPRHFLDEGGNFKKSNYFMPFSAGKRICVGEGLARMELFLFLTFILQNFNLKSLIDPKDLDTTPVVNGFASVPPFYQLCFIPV
CYP1A2, sequence (P05177 whole entry): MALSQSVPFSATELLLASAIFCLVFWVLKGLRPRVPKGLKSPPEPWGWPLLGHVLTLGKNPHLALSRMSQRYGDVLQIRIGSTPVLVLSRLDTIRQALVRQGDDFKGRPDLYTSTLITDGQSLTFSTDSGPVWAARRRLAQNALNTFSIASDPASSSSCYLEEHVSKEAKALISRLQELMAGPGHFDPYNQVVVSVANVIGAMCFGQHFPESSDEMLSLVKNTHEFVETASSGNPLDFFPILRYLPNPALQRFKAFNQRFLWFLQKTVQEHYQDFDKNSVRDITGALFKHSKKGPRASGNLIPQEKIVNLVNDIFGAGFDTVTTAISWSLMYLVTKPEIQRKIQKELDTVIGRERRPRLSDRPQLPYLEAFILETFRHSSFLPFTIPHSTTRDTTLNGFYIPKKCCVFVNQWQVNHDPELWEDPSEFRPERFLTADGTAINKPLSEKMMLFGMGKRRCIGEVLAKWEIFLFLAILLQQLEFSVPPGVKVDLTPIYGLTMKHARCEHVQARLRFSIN

Usually IC50 stands for the concentration needed to halve the response being measured. Usually fraction unbound stands for free concentration divided by total concentration. Low readings indicate extensive binding, high ones weak binding. In the case of `O=c1[nH]/c(=N\c2ccc(Oc3ccc(F)cn3)cc2)n(Cc2ccc(Cl)cc2)c(=O)n1[C@H]1C[C@H](C(=O)O)C1` [Compound I-019], the IC50 at human P2X3 receptor was 68 nM; at Rat P2X3 receptor, 11 nM. Also, the solubility at 18 h in data set [1] was greater than 50 µM. For the same molecule, the “Metabolism Stability” value in data set [2] is 96%. For the same molecule, the fraction unbound at 24 h, 2 μg/mL in data set [3] was found to be 0.01.

With `C[C@@H](Cn1c(=O)[nH]/c(=N\c2ccc(Oc3cccc(F)n3)cc2)n(Cc2ccc(F)cc2F)c1=O)C(=O)O` [Compound I-029], in [2], the “Metabolism Stability” value came to 100%. In data set [3], this molecule yielded a fraction unbound at 24 h, 2 μg/mL of 0.017.

For `Cc1ccc(Cn2c(=O)n(C[C@H](C)C(=O)O)c(=O)[nH]/c2=N\c2ccc(Oc3ncccc3F)cc2)cc1` [Compound I-056], the IC50 on human P2X3 receptor stood at 23 nM. Besides, the fraction unbound at 24 h, 2 μg/mL in data set [3] came out at 0.018.

The clearance is the rate of elimination divided by the concentration. In general, AUC refers to the area under the concentration-time curve, a measure of exposure. For `Cc1ccc(Cn2c(=O)n(C[C@H](C)C(=O)O)c(=O)[nH]/c2=N\c2ccc(Oc3cccc(F)n3)cc2)cc1` [Compound I-057], the IC50 against CYP1A2, against CYP2C9, against CYP2C19, at CYP2D6 and against CYP3A4 was greater than 20000 nM in each case. For the same molecule, the solubility at 18 h in data set [1] was greater than 50 µM. For the same molecule, the “Metabolism Stability” value in data set [2] worked out at 91%. In data set [3], this molecule returned a fraction unbound at 24 h, 2 μg/mL of 0.017. In [4] (intravenous administration 0.5 mg/kg), the clearance came out at 22.9 mL/min/kg. The AUC in data set [4] (intravenous administration 0.5 mg/kg, read-out: AUC (iv)) is 367 ng·h/mL; in data set [4] (oral administration 1 mg/kg, read-out: AUC (po)), 487 ng·h/mL.

On to `C[C@@H](Cn1c(=O)[nH]/c(=N\c2ccc(Oc3cnccn3)cc2)n(Cc2ccc(Cl)cc2)c1=O)C(=O)O` [Compound R-019], for which the IC50 at Rat P2X3 receptor was 8 nM. The free fraction (fraction unbound) at 24 h, 2 μg/mL in data set [3] turned out to be 0.018.
